# Measured values: patent US20030162834A1, “Natural physiologically active material effective on fish diseases and fish food containing the material” (priority 1998, published 2003)
# Legend:
# [1] = tested on: blood flukes (Paradeontacylix); assay: Trial 5: oral octanoic acid, field trial on amberjack; format: in vivo; conditions: 8 g octanoic acid per 1 kg pellets, 9 days
# Experimental: (§1) Fish tested: Amberjack weighing approximately 117 g in average.
# (§2) Trial groups: Two groups, i.e., an octanoic-acid added group in which fish were fed diets added with octanoic acid, and a control group in which fish were fed diets not added with octanoic acid. The feeding rate was 3% of fish weight/day for each group.
# (§3) Trial diets: The diets added with octanoic acid were prepared by spraying 8 g of octanoic acid to 1 kg of commercially available pellets for amberjack. The control group fish were fed the commercially available pellets for amberjack.
# (§4) Trial: The trial was conducted using off-shore net pens of 10×10×9 m placed in the field sea. Each 15000 pieces of fish for each group were treated with a parasiticide containing commercially available hydrogen peroxide as a main ingredient, and then put in each net pen. At this time, it was confirmed that Heteraxine heterocerca parasitizing to the gill and Benedenia seriolae parasitizing on the body surface were eliminated, by investigating 20 pieces of fish for each group. It was also simultaneously confirmed that blood flukes (Pradeontacylix) were present in the fish, by investigating the presence of eggs in the gill filaments. Then, bleeding was continued for 9 days while feeding the trial diets. The water temperature during the trial period was in the range of 18.5-20.0 degrees centigrade.
# (§5) Evaluation was made by sampling 20 pieces of fish from each group after 9 days from the start of the bleeding, and counting and comparing the number of Heteraxine heterocerca in the gill of each sampled fish, the number of Benedenia seriolae on the body surface, and the number of eggs of blood flukes (Paradeontacylix) in the gill filaments.
# Heteraxine heterocerca = assay: as above; format: in vivo; conditions: 8 g octanoic acid per 1 kg pellets, 9 days
# Experimental: as §1, §2, §3, §4, §5
# Benedenia seriolae = assay: as above; format: in vivo; conditions: 8 g octanoic acid per 1 kg pellets, 9 days
# Experimental: as §1, §2, §3, §4, §5
# Cryptocaryon irritans [2] = assay: Trial 10: immersion of infected tiger puffer in seawater containing octanoic acid; format: in vivo; conditions: 200 ppm for 2 minutes, 3 hours after return to seawater
# Experimental: 300 g of tiger puffer infected with Cryptocaryon irritans was immersed in seawater containing 200 ppm of octanoic acid for 2 minutes, and then returned to seawater again. After 3 hours from return to seawater, the parasites Cryptocaryon irritans and their situations and numbers were observed.
# Cryptocaryon irritans [3] = assay: Trial 8: octanoic acid versus its monoglyceride and triglyceride, oral, red sea bream; format: in vivo; conditions: diet amount equal to 17.5 mM octanoic acid residues (2.5 g acid, 3.8 g monoglyceride, 2.7 g triglyceride per kg)
# Source text: Fish tested: Red sea bream weighing approximately 15.8 g in average.
# Trial groups: Four groups, i.e., an octanoic-acid added group in which fish were fed diets added with octanoic acid, a monoglyceride added group in which fish were fed diets added with monoglyceride of octanoic acid, a triglyceride added group in which fish were fed diets added with triglyceride of octanoic acid, and a control group in which fish were fed diets added with neither octanoic acid nor glycerides. The feeding rate was 3% of fish weight/day for each group.
# Trial diets: The diets added with octanoic acid were prepared by spraying 2.5 g (17.5 mM with respect to the diet weight) of octanoic acid to 1 kg of commercially available pellets for red sea bream. […]. Specifically, the diets added with monoglyceride and triglyceride were prepared respectively by spraying 3.8 g of monoglyceride and 2.7 g of triglyceride to 1 kg of the commercially available pellets for red sea bream. The control group fish were fed the commercially available pellets for red sea bream.
# Challenge trial: Each 10 pieces of fish from among a shoal of fish, in which no diseases such as Cryptocaryon irritans infection were found, were put in a 100-liter water tank, and were fed the respective trial diets. After 5 days, approximately 2000 individuals of theronts of Cryptocaryon irritans were put into each water tank to infect the fish while water flow was stopped for 1 hour. Then, bleeding was continued for 31 days while feeding the respective trial diets. During the trial period, the water temperature was 24+−1 degrees centigrade and the water was exchanged at 20 cycles/day.
# Evaluation was made by sampling 5 pieces of fish from each group after 18 and 31 days from the start of the challenge, and comparing the number of the parasites attaching to the gill of each fish.
# Heterobothrium okamotoi = assay: Trial 1: in vitro immersion of oncomiracidia and gill-attached larvae in fatty acid seawater solutions; format: cell-based; conditions: 1 mM in seawater, 20 degrees centigrade
# Experimental: Fatty acids having carbon number C2, C4 and C6-C10 were each dissolved in seawater at 1 mM concentration, and oncomiracidia of Heterobothrium okamotoi and larvae attaching to the gill were immersed in the seawater solutions. After 2 hours from the start of immersion, the efficacy of the fatty acids was investigated by counting the number of dead oncomiracidia and the number of larvae dropping down from the gill. More than 30 individuals of parasites were transferred to each group.
# For any of the groups, the trial was made under condition of 20 degrees centigrade.
# Bivagina tai larvae = assay: Trial 2: in vitro immersion in octanoic acid seawater; format: cell-based; conditions: 800 PPM octanoic acid added to seawater, 20 degrees centigrade
# Experimental: (§6) 800 PPM of octanoic acid was added to seawater and dissolved therein maximally. In this seawater solution, Bivagina tai larvae sampled from the gill of red sea bream, Heteraxine heterocerca larvae sampled from the gill of young yellowtail, Benedenia seriolae adults sampled from the body surface of young yellowtail, Kudoa shiomitsui spores sampled from the heart of tiger puffer, and Pseudocaligus fugu adults sampled from the body surface of tiger puffer were immersed under condition of 20 degrees centigrade, followed by observation. As control, another group was managed using seawater alone. More than 30 individuals of parasites were transferred to each group.
# [4] = tested on: Heteraxine heterocerca larvae; assay: as above; format: cell-based; conditions: 800 PPM octanoic acid added to seawater, 20 degrees centigrade
# Experimental: as §6
# [5] = tested on: Benedenia seriolae adults; assay: as above; format: cell-based; conditions: 800 PPM octanoic acid added to seawater, 20 degrees centigrade
# Experimental: as §6
# [6] = tested on: Pseudocaligus fugu adults; assay: as above; format: cell-based; conditions: 800 PPM octanoic acid added to seawater, 20 degrees centigrade
# Experimental: as §6
# Kudoa shiomitsui spores = assay: as above; format: cell-based; conditions: 800 PPM octanoic acid added to seawater, 20 degrees centigrade
# Experimental: as §6
# [7] = tested on: Heterobothrium okamotoi larvae; assay: Immersion of Heterobothrium okamotoi larvae in seawater with dissolved octanoic acid; format: cell-based; conditions: seawater in which octanoic acid was dissolved
# Experimental: Larvae of parasites Heterobothrium okamotoi were immersed in seawater in which octanoic acid was dissolved. […] Octanoic acid is an edible natural material contained in palm oil, butter and nuts, and has been used in a drug applied to dyspeptics, for example.
compound,measurement,setting,value
CCCCCCCC(=O)O [octanoic acid],eggs of blood flukes in the gill filaments,[1],no eggs of blood flukes were observed
same,"number of Heteraxine heterocerca in the gill, versus control",Heteraxine heterocerca,apparently fewer
same,"number of Benedenia seriolae on the body surface, versus control",Benedenia seriolae,no appreciable difference
same,number of parasites attaching to the body surface,Cryptocaryon irritans [2]; before treatment 193/2 cm^2,261 /2 cm^2
same,number of parasites attaching to the gill,Cryptocaryon irritans [2]; before treatment 624,356 per branchial arch
same,body-surface parasites that showed movement and seemed still alive,Cryptocaryon irritans [2]; of 261,9
same,gill parasites that showed movement and seemed still alive,Cryptocaryon irritans [2]; of 356,193
same,"number of parasites attaching to the gill after 18 and 31 days, versus control",Cryptocaryon irritans [3],apparently fewer
same,emergence of dead oncomiracidia,Heterobothrium okamotoi,emerged earliest
same,larvae dropping down from the gill (drop-down rate),Heterobothrium okamotoi; 2 hours,highest drop-down rate
same,contraction of parasites,Bivagina tai larvae,became contracted apparently
same,time until contraction occurred,Bivagina tai larvae,approximately 10 minutes
same,contraction of parasites,[4],became contracted apparently
same,time until contraction occurred,[4],approximately 10 minutes
same,contraction of parasites,[5],became contracted apparently
same,time until contraction occurred,[5],approximately 10 minutes
same,contraction of parasites,[6],no contraction
same,time until reduction in swimming activity was found,[6],approximately 1 hour
same,time until burst image of the spores was observed,Kudoa shiomitsui spores,approximately 1 hour
same,effect on larvae,[7],died due to the occurrence of structural damages (such as vacuolation)
